Data published in patent US7833531B2, “Method for treating insulin sensitivity by long-acting GLP-1 receptor mimetibody agonists” (Centocor, Inc., priority 2006, dated 2010).
Like-named read-outs stand apart in the source and are kept apart here. Where no end group is shown, it is not given here.

Tests used:
db/db mice = assay: Blood glucose lowering in db/db mice; type: in vivo; settings: six week old db/db mice fasted two hours, intravenous; 0.5-4 hours post-dosing; MMB dose 100-fold lower than GLP-1 peptide dose
Experimental: GLP-1 MMB Lowers Glucose Level in db/db Mice. […] Blood glucose was monitored 0.5, 1, 2, 3, and 4 hours post-dosing.

diabetic rats = settings: cited from earlier work
GLP-1R = target: T1, GLP-1R (Rattus norvegicus, UniProt P32301); assay: cAMP assay in Rinm cells; type: cell-based; settings: similar experiment
T1 construct: endogenous in cells; host or cells: Rinm cells
T1 sequence (P32301 22-463): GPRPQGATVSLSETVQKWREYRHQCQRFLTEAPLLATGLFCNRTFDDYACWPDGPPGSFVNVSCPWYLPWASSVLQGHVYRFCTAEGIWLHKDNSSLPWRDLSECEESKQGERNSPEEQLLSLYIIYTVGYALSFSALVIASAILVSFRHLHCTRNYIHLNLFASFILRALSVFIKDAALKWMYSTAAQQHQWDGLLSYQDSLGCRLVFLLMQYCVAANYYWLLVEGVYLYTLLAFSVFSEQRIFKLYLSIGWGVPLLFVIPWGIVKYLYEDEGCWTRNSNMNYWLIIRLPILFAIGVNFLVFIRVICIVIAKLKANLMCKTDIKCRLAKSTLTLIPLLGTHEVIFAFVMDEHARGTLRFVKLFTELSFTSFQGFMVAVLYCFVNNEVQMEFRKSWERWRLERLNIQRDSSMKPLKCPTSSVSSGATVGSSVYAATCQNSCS
Experimental: cAMP Assay. GLP-1 binds to its receptor, a G-protein coupled receptor, resulting in a dose-dependent increase in the signaling molecule, 3′,5′-cyclic AMP (cAMP). cAMP can be measured with an in vitro assay in cells expressing the GLP-1R (Applied Biosystems). […] The cells were lysed, and the amount of cAMP was determined using a competitive assay that employs an alkaline-phosphatase labeled cAMP conjugate and a chemiluminescent substrate (Tropix® CDPD®).

[1] = cited from earlier work
[2] = cited from earlier work; remark: listed apart in the source

For `CC[C@H](C)[C@H](NC(=O)[C@H](Cc1ccccc1)NC(=O)[C@H](CCC(=O)O)NC(=O)[C@H](CCCCN)NC(=O)[C@H](C)NC(=O)[C@H](C)NC(=O)[C@H](CCC(N)=O)NC(=O)CNC(=O)[C@H](CCC(=O)O)NC(=O)[C@H](CC(C)C)NC(=O)[C@H](Cc1ccc(O)cc1)NC(=O)[C@H](CO)NC(=O)[C@H](CO)NC(=O)[C@@H](NC(=O)[C@H](CC(=O)O)NC(=O)[C@H](CO)NC(=O)[C@@H](NC(=O)[C@H](Cc1ccccc1)NC(=O)[C@@H](NC(=O)CNC(=O)[C@H](CCC(=O)O)NC(=O)[C@H](C)NC(=O)[C@@H](N)Cc1c[nH]cn1)[C@@H](C)O)[C@@H](C)O)C(C)C)C(=O)N[C@@H](C)C(=O)N[C@@H](Cc1c[nH]c2ccccc12)C(=O)N[C@@H](CC(C)C)C(=O)N[C@H](C(=O)N[C@@H](CCCCN)C(=O)NCC(=O)N[C@@H](CCCNC(=N)N)C(N)=O)C(C)C` [GLP-1 peptide], the blood glucose (db/db mice) is given as “lowered blood glucose at 30 minutes, but by 60 minutes, the blood glucose began to increase again”, the insulin sensitivity (diabetic rats; acute administration) is given as “not acute” and the insulin sensitivity (diabetic rats; chronic administration) is given as “significant improvement in insulin sensitivity”.

In the case of “GLP-1 (A2S) MMB in IgG4 scaffold: mimetibody with DPP-IV resistant GLP-1 variant GLP-1 (A2S) in IgG4 scaffold (HSEGTFTSDVSSYLEGQAAKEFIAWLVKGRG; also: in IgG4 mimetibody scaffold)”, the “cAMP levels in Rinm cells relative to wt GLP-1 MMB in IgG4 scaffold” value (GLP-1R) is reported as “significantly higher level than wt GLP-1 MMB in IgG4 scaffold”.

For “Byetta™: recently marketed GLP-1 analogue developed by Amylin and Eli Lilly, first identified in the saliva of the gila monster lizard”, the “sustained decrease in body weight” value ([1]; during the course of the study) is given as 5-10 pounds, the HbAlc levels lowered ([1]; following 82 weeks of treatment) is given as “approximately 1%” and the “in vivo half life” value [2] is given as “less than 30 minutes”.

In the case of “GLP-1 (A2G) MMB in IgG4 scaffold: mimetibody with DPP-IV resistant GLP-1 variant GLP-1 (A2G) in IgG4 scaffold (HGEGTFTSDVSSYLEGQAAKEFIAWLVKGRG; also: in IgG4 mimetibody scaffold)”, the “cAMP levels in Rinm cells relative to wt GLP-1 MMB in IgG4 scaffold” value (GLP-1R) is reported as “significantly higher level than wt GLP-1 MMB in IgG4 scaffold”.
